Where “and” joins values, the source holds several entries; their conditions need not be identical. Equal entries are not always repeated.
Legend:
[1] = Method: A salt screen of this compound was conducted with various pharmaceutically acceptable counterions to analyze aqueous solubility of the formed salts. Formed solids suspected of forming salts were analyzed by X-ray powder diffraction (XRPD).
[2] = Pharmacokinetics of a single oral dose in a healthy subject; settings: human, in vivo
Method: The pharmacokinetic parameters of a single oral dose of the antifolate compound according to the invention were evaluated. In Comparative Examples 2-7, 1 to 20 mg of an antifolate compound according to Formula (9) was administered in the racemic free acid form (i.e., not as part of a pharmaceutical formulation). The drug product was supplied as powder-filled gelatin capsules in three active strengths (1.0 mg, 2.5 mg. and 5.0 mg) with each capsule including enough microcrystalline cellulose to bring the total capsule weight to 288 mg. […] In Examples 2-8, the test material was administered to a healthy subject, and blood samples were taken before dosing and at 0.5, 1, 1.5, 2, 2.5, 3, 3.5, 4, 5, 6, 8, 10, 12, 16, 24, and 48 hours after dosing. The calculated pharmacokinetic values observed are provided below in Table 3.
In Table 3, Cmax is the maximum measured plasma concentration of the antifolate compound administered and tmax is the time to Cmax. […] Thus, the pharmaceutical formulations of the present invention allow for greatly reducing the amount of antifolate compound that is administered to a subject while actually increasing the amount of the compound that is available for therapeutic action.

[3] = Comparative dissolution with cyclodextrin formulation (FIG. 4); assay type: physicochemical; settings: 45 minutes
Source text: Compositions according to the invention using cyclodextrins have also shown similarly beneficial results. The improved solubility of the inventive compositions comprising an antifolate compound and a cyclodextrin is illustrated in FIG. 4, wherein the comparative dissolution of an antifolate compound is again given as a percent dissolution as a function of time. The antifolate compound was again tested in the diacid form (denoted as “Free acid”), in the sodium salt form (denoted as “Disodium salt”), and as the sodium salt form in a pharmaceutical composition according to the invention including a cyclodextrin (denoted as “Cyclodextrin formulation”). […] The inventive formulation approached 100% dissolution within 30 minutes. After 45 minutes, the salt alone and the diacid alone achieved only about 70% dissolution and about 45% dissolution, respectively.

[4] = Comparative dissolution in 0.1N hydrochloric acid, USP dissolution apparatus with HPLC (FIG. 2, FIG. 3); assay type: physicochemical
Method: The percent dissolution for both compounds in 0.1N hydrochloric acid as a function of time was evaluated using a standard USP dissolution apparatus and high performance liquid chromatography (HPLC) test equipment. […] This is particularly relevant in the case of pharmaceutical compositions of the invention for oral delivery, wherein the composition will encounter an acidic environment, such as in the stomach. Greater solubility of the sodium salt compound indicates a greater amount of the active compound will be available for absorption.
Such improved solubility is illustrated in FIG. 3, wherein the comparative dissolution of an antifolate compound is given as the percent dissolution as a function of time. The antifolate compound was tested in the diacid form (denoted as “CH-1504 free acid”), in the sodium salt form (denoted as “CH-1504 sodium salt”), and as the sodium salt form in a pharmaceutical composition according to the invention including […]® 44/14 (denoted as “CH-1504 formulation”). Dissolution was tested using 0.1N hydrochloric acid. […] The inventive formulation achieved 90% dissolution by 30 minutes and 100% dissolution by 45 minutes. After 90 minutes, the salt alone and the diacid alone achieved only about 75% dissolution and about 50% dissolution, respectively.

[5] = target: T1, reduced folate carrier (RFC) (Homo sapiens, UniProt P41440); assay: [3H]MTX transport inhibition in intact CCRF-CEM human T-cell leukemia cells; assay type: cell-based; settings: 2 μM [3H]MTX, 37°, 5 min uptake
T1 construct: endogenous in cells; host or cells: CCRF-CEM human T-cell leukemia cells
T1 sequence (P41440 1-591): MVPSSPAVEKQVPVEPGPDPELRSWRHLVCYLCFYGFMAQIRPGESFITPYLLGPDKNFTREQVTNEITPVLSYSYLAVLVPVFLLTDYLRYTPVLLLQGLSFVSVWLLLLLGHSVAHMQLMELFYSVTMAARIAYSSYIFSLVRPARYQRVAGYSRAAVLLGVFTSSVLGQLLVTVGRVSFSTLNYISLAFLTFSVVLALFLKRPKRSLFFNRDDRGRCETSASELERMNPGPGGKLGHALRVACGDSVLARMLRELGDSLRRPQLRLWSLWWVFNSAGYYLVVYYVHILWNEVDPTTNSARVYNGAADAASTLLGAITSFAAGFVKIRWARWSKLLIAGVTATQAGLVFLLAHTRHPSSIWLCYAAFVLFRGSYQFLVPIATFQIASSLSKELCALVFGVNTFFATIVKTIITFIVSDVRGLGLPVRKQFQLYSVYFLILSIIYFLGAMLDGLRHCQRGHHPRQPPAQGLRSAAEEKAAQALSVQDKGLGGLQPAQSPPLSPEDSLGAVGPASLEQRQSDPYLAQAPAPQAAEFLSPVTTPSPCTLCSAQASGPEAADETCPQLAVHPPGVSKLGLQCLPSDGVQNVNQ
Method: Transport of 2 μM [^3H]MTX (methotrexate) at 37° by intact CCRF-CEM human T-cell leukemia was assayed by a micro-method utilizing repeated iced saline washes to remove extracellular drug. Such method is disclosed in McGuire J J, et al., Cancer Res 1989; 49:4517-25 and McGuire J J, et al., Cancer Res 2006; 66:3836-44, both of which are incorporated herein by reference in their entirety. The washed cell pellets were solubilized in 1 ml of 0.3% Triton X-100 at 37° C. for 1 hour before transfer to scintillation vials; 10 ml Ecoscint liquid scintillation fluid (National Diagnostics, Atlanta, Ga.) was added and radioactivity was quantitated in a Beckman LS6500 scintillation counter. […] Uptake was initiated by addition of 200 μL of cells at ≈2.5×10^7 cells/ml and 2 aliquots (100 μL) were removed to iced saline and processed at 5 min. Adventitious [^3H]MTX binding was determined at 0° C. by adding 200 μl of cells to 25 μl of PBS in a tube and cooling to 0° C. in ice for ≧5 min; following addition of 25 μl of [^3H]MTX to achieve a final concentration of 2 μM, 2 aliquots (100 μL) were immediately removed to iced saline and processed.
Analytical HPLC was performed on a Rainin Instruments HPLC system using the Dynamax controller and data capture module run on a Macintosh computer, such as described in McGuire J J, et al., J Biol Chem 1990; 265:14073-9, which is incorporated herein by reference in its entirety. C18 reversed-phase (0.4×25 cm; Rainin Microsorb, 5μ) HPLC was performed at 25° C. Detection was by absorbance at 280 and/or 254 nm. For MTX (tr, ≈31.6 min) and 7-OH-MTX (tr, ≈35.2 min) the gradient was from 4-13% ACN in 0.1 M Na-acetate, pH 5.5 over 41 min at 1 ml/min.

[6] = Plasma concentration after oral L- or D-CH-1504 in non-fasted rats (Example 14); assay type: in vivo; settings: individual animals; for Plasma conc. of D-CH-1504 / Plasma conc. of L-CH-1504: non-fasted female Lewis rats
Method: L- or D-CH-1504 was administered once orally to non-fasted female Lewis rats at a dose of 10 mg/kg (vehicle: 0.11% carboxymethylcellulose/0.45% TWEEN 80, formulation: suspension). About 750 μL of blood was collected from the jugular vein at 1 and 3 hours after administration. And then, whole of blood was collected from the femoral vein under diethyl ether anesthesia at 6 hours after administration. The collected blood was immediately centrifuged to obtain a plasma sample. L- and D-CH-1504 were extracted from the plasma by solid-phase extraction and were then determined with a LC/MS/MS.

CCRF-CEM cells = assay: Growth inhibition of CCRF-CEM cells by continuous (120 hr) drug exposure; assay type: cell-based, human; settings: continuous 120 hr exposure
Method: The human T-lymphoblastic leukemia cell line CCRF-CEM (described in Foley G F, et al., Cancer 1965; 18:522-9) was cultured as described in McCloskey D E, et al., J Biol Chem 1991; 266:6181-7 (both of which are incorporated herein by reference in their entirety) and verified to be negative for Mycoplasma contamination (Mycoplasma Plus PCR primers, Stratagene, La Jolla, Calif.).

[7] = Hygroscopicity study of salts at 75% relative humidity for five days; assay type: physicochemical
Source text: Hygroscopicity and approximate solubility in aqueous and buffered solutions of ammonium, besylate, calcium, esylate, sulfate, HCl, mesylate, napsylate, potassium, disodium, and tosylate salts were compared. In the hygroscopicity study, the salts were subjected to 75% relative humidity for five days.

SMILES: C=C(CC(NC(=O)c1ccc(CCc2ccc3nc(N)nc(N)c3c2)cc1)C(=O)O)C(=O)O (racemic) [CH-1504, 2-{4-[2-(2,4-diamino-quinazolin-6-yl)-ethyl]-benzoylamino}-4-methylene-pentanedioic acid]
- solubility (in words) [1]: poor solubility
- AUC(0-inf) ([2]; 1 mg): 1.52 ng·h/mL
- AUC(0-t) ([2]; 1 mg): 1.25 ng·h/mL
- Cmax ([2]; 1 mg): 0.69 ng/mL
- Tmax ([2]; 1 mg): 2.26 h
- half-life ([2]; 1 mg): 59.4 min
- AUC(0-inf) ([2]; 5 mg): 9.58 ng·h/mL
- AUC(0-t) ([2]; 5 mg): 8.92 ng·h/mL
- Cmax ([2]; 5 mg): 2.65 ng/mL
- Tmax ([2]; 5 mg): 1.26 h
- half-life ([2]; 5 mg): 193 min
- AUC(0-inf) ([2]; 7.5 mg): 7.47 ng·h/mL
- AUC(0-t) ([2]; 7.5 mg): 6.63 ng·h/mL
- Cmax ([2]; 7.5 mg): 2.05 ng/mL
- Tmax ([2]; 7.5 mg): 1.5 h
- half-life ([2]; 7.5 mg): 163 min
- AUC(0-inf) ([2]; 10 mg): 26 ng·h/mL
- AUC(0-t) ([2]; 10 mg): 25.2 ng·h/mL
- Cmax ([2]; 10 mg): 6 ng/mL
- Tmax ([2]; 10 mg): 2.01 h
- half-life ([2]; 10 mg): 188 min
- AUC(0-inf) ([2]; 15 mg): 25.9 ng·h/mL
- AUC(0-t) ([2]; 15 mg): 25 ng·h/mL
- Cmax ([2]; 15 mg): 6.57 ng/mL
- Tmax ([2]; 15 mg): 2.25 h
- half-life ([2]; 15 mg): 192 min
- AUC(0-inf) ([2]; 20 mg): 35.6 ng·h/mL
- AUC(0-t) ([2]; 20 mg): 34.6 ng·h/mL
- Cmax ([2]; 20 mg): 7.83 ng/mL
- Tmax ([2]; 20 mg): 2.25 h
- half-life ([2]; 20 mg): 235 min
- percent dissolution [3]: about 45%
- percent dissolution ([4]; FIG. 2, 45 minutes): 45%
- percent dissolution ([4]; FIG. 3, 15 minutes): approximately 35%
- percent dissolution ([4]; FIG. 3, 90 minutes): about 50%
- IC50 [5]: 1700 nM

SMILES: Nc1nc(N)c2nc(CNc3ccc(C(=O)N[C@@H](CCC(=O)O)C(=O)O)cc3)cnc2n1 [Aminopterin, reference compound]
- IC50 [5]: 1500 nM

SMILES: C=C(C[C@@H](NC(=O)c1ccc(CCc2ccc3nc(N)nc(N)c3c2)cc1)C(=O)O)C(=O)O [D-CH-1504]
- Plasma conc. of D-CH-1504 ([6]; 1 h after 10 mg/kg oral): 31.5 ng/mL and 20.5 ng/mL and 11.0 ng/mL
- Plasma conc. of L-CH-1504 ([6]; 1 h after 10 mg/kg oral): 0.895 ng/mL and BLQ (Below limit of quantification (<0.500 ng/mL)) (2×)
- Plasma conc. of D-CH-1504 ([6]; 3 h after 10 mg/kg oral): 14.3 ng/mL and 9.44 ng/mL and 8.93 ng/mL
- Plasma conc. of L-CH-1504 ([6]; 3 h after 10 mg/kg oral): BLQ (Below limit of quantification (<0.500 ng/mL))
- Plasma conc. of D-CH-1504 ([6]; 6 h after 10 mg/kg oral): 8.34 ng/mL and 13.6 ng/mL and 8.01 ng/mL
- Plasma conc. of L-CH-1504 ([6]; 6 h after 10 mg/kg oral): BLQ (Below limit of quantification (<0.500 ng/mL))
- EC50 (CCRF-CEM cells): 29 nM
- IC50 [5]: 7600 nM

SMILES: C=C(C[C@H](NC(=O)c1ccc(CCc2ccc3nc(N)nc(N)c3c2)cc1)C(=O)O)C(=O)O [L-CH-1504, (S)-2-{4-[2-(2,4-diamino-quinazolin-6-yl)-ethyl]-benzoylamino}-4-methylene-pentanedioic acid]
- Plasma conc. of D-CH-1504 ([6]; 1 h after 10 mg/kg oral): BLQ (Below limit of quantification (<0.500 ng/mL))
- Plasma conc. of L-CH-1504 ([6]; 1 h after 10 mg/kg oral): 139 ng/mL and 118 ng/mL
- Plasma conc. of D-CH-1504 ([6]; 3 h after 10 mg/kg oral): BLQ (Below limit of quantification (<0.500 ng/mL))
- Plasma conc. of L-CH-1504 ([6]; 3 h after 10 mg/kg oral): 36.8 ng/mL and 59.7 ng/mL
- Plasma conc. of D-CH-1504 ([6]; 6 h after 10 mg/kg oral): BLQ (Below limit of quantification (<0.500 ng/mL))
- Plasma conc. of L-CH-1504 ([6]; 6 h after 10 mg/kg oral): 22.2 ng/mL and 21.7 ng/mL
- concentration at 1 h ([6]; female, Lewis, rat, plasma, oral, 10 mg/kg, 1 h after 10 mg/kg oral, read-out: Plasma conc. of L-CH-1504): 144 ng/mL
- concentration at 3 h ([6]; female, Lewis, rat, plasma, oral, 10 mg/kg, 3 h after 10 mg/kg oral, read-out: Plasma conc. of L-CH-1504): 61.9 ng/mL
- concentration at 6 h ([6]; female, Lewis, rat, plasma, oral, 10 mg/kg, 6 h after 10 mg/kg oral, read-out: Plasma conc. of L-CH-1504): 22.7 ng/mL
- IC50 [5]: 1100 nM

SMILES: Cc1ccc(S(=O)(=O)O)cc1.Cn1cc(-c2ccc3nnc(C(F)(F)c4ccc5ncccc5c4)n3n2)cn1 [tosylate salt]
- hygroscopicity study outcome [7]: Tacky or gummy solids or solids not exhibiting birefringence and extinction
